Measured values reported in US20070248954A1, “Primers for Use in Detecting Beta-Lactamases” (Creighton University, priority 2003, published 2007).
Converted amounts (≈) assume the structure as drawn.

Columns and labels:
[1] = tested on: Twenty two isolates representing E. coli (Ec), Citrobacter freundii (Cf) and C. koseri (Ck); assay: MICs of the 22 isolates of Example 1; assay type: cell-based; settings: read-out: MICs; all 22 isolates (E. coli, C. freundii, C. koseri)
Method: Twenty two isolates representing E. coli (Ec), Citrobacter freundii (Cf) and C. koseri (Ck) were studied. All of these strains had MICs of greater than (>) 32 micrograms per milliliter […] of cefotaxime, >16 mg/ml of cefepime, and ranged between 1 to 8 mg/ml for ceftazidime. Dendrogram analysis of CTX-M genes deposited in GenBank was performed, and based on these analyses, known CTX-M-genes were divided into four families. Based on these families, four sets of family-specific primers were designed. Specificity of the primers was tested on all 22 of the isolates.

[2] = tested on: Total (n = 175) clinical strains producing extended-spectrum β-lactamases; assay: ESBL screening of clinical strains; assay type: cell-based, E. coli, K. pneumoniae; settings: drug 1 μg/ml
Method: (§1) A total of 175 isolates representing E. coli (n=168), K. pneumoniae (n=7) were studied. Minimum inhibitory concentrations (MICs) to the following drugs were determined by Vitek (Vitek AMS; bioMérieux Vitek 5 Systems Inc., Hazelwood, Mo.); piperacillin (PIP), piperacillin/tazobactam (TZP), cefpodoxime (CPD), cefotaxime (CTX), ceftazidime (CAZ). The quality control strains used for this study were E. coli ATCC 25922, E. coli 35218, Pseudomonas aeruginosa ATCC 27853, Staphlylococcus aureus ATCC 29213, and K. pneumoniae ATCC 700603. Throughout this study, results were interpreted using National Committee for Clinical Laboratory Standards (NCCLS) criteria for broth dilution.
(§2) The presence of ESBLs was evaluated in both the control strains and the recent clinical isolates. Screening was performed with Vitek (Vitek AMS; bioMerieux Vitek Systems, Inc., Hazelwood, Mo.) using 1 μg/ml CPD, CAZ, and CTX. Screening and disk confirmation tests using CTX (30 μg) and CAZ (30 μg) disks in combination with 10 μg clavulanate (CLA) were performed and interpreted using NCCLS criteria for ESBL screening and disk confirmation tests. Disks for_ESBL confirmation tests were obtained from Oxoid Inc. (Nepean, Ontario, Canada). K. pneumoniae ATCC 700603 and E. coli ATCC 25922 were used as positive and negative controls, respectively.

[3] = tested on: E. coli (n = 51), PCR for blaCTXM genes Negative; assay: ESBL screening of clinical strains; assay type: cell-based; settings: drug 1 μg/ml
Method: as §1, §2

[4] = tested on: E. coli (n = 24), Positive for CTX-M-1 group; assay: ESBL screening of clinical strains; assay type: cell-based; settings: drug 1 μg/ml
Method: as §1, §2

[5] = tested on: K. pneumoniae (n = 5), PCR for blaCTXM genes Negative; assay: ESBL screening of clinical strains; assay type: cell-based; settings: drug 1 μg/ml
Method: as §1, §2

[6] = tested on: E. coli (n = 93), Positive for CTX-M-1V group; assay: ESBL screening of clinical strains; assay type: cell-based; settings: drug 1 μg/ml
Method: as §1, §2

[7] = tested on: K. pneumoniae (n = 2), Positive for CTX-M-1V group; assay: ESBL screening of clinical strains; assay type: cell-based; settings: drug 1 μg/ml
Method: as §1, §2

[8] = tested on: DNA template prepared from control strains known to produce specific CTX-M β-lactamases or ESBLs other than CTX-M β-lactamases; assay: PCR specificity test of designed primers on control strains; settings: for amplification with the rest of the control strains: DNA template from all other control strains in Table 1; for size of single amplified product: DNA template from the control strains of the primer set's own group
From the text: Once the primers are designed, their specificity can be tested using the following method. Depending on the target nucleic acid of clinical interest, a nucleic acid is isolated from a bacterial control strain known to express or contain the resistance gene. This control strain, as used herein, refers to a “positive control” nucleic acid (typically, DNA). Additionally, a “negative control” nucleic acid (typically, DNA) can be isolated from one or more bacterial strains known to express a resistance gene other than the target gene of interest. Using the polymerase chain reaction, the designed primers are employed in a detection method, as described above, and used in the positive and negative control samples and in at least one test sample suspected of containing the resistance gene of interest. The positive and negative controls provide an effective and qualitative (or grossly quantitative) means by which to establish the presence or the absence of the gene of interest of test clinical samples. It should be recognized that with a small percentage of primer pairs, possible cross-reactivity with other β-lactamase genes might be observed. However, the size and/or intensity of any cross-reactive amplified product will be considerably different and can therefore be readily evaluated and dismissed as a negative result.
Polymerase Chain Reaction (PCR) amplifications were carried out on a Thermal Cycler 9600 instrument (Applied Biosystems, Norwalk, Conn.) as indicated in Example 1, with the primers, the size of the expected amplification product, and annealing temperatures used for the PCR as listed in Table 1. Magnesium chloride concentrations were 1.5 mM for all PCR reactions.
The designed primers were tested for specificity in separate PCR reactions using DNA template prepared from control strains known to produce specific CTX-M β-lactamases or strains producing ESBLs other than CTX-M β-lactamases (Tables 1 and 2, FIG. 3). […] Group II primers amplified a single 351 bp fragment when DNA template was prepared from control strains Rio-4, 34, and CT1.
Group IV primers amplified a 474 bp product from DNA prepared from strains 785D, EC984167, CF1, Rio-6, BM4493, ILT-2, and ILT-3. […] An isolate producing CTX-M-25 was requested but not obtained. Therefore, we were unable to examine the ability of the Group III primer set to amplify blaCTX-M-25.

[9] = tested on: ESBL-producing strains; settings: drug used as an initial screen; cited from earlier work

MIC [1] [mg/L]	Compound	Screening, No positive [2]	Screening, No positive (%) [2]	Screening, No positive [3]	Screening, No positive (%) [3]	Screening, No positive [4]	Screening, No positive (%) [4]	Screening, No positive [5]	Screening, No positive (%) [5]	Screening, No positive [6]	Screening, No positive (%) [6]	Screening, No positive [7]	Screening, No positive (%) [7]	amplification with the rest of the control strains [8]	size of single amplified product [8] [bp]	also measured
> 32	CO/N=C(\C(=O)N[C@@H]1C(=O)N2C(C(=O)O)=C(COC(C)=O)CS[C@H]12)c1csc(N)n1 [CTX, cefotaxime]	171	(98%)	48	(94%)	24	(100%)	4	(80%)	93	(100%)	2	(100%)	–	–	–
–	CTX-M-VI group: primer pair of SEQ ID NO:5 and SEQ ID NO:6, Group 4 CTX-M β-lactamases, 474 base pair amplicon (DNA 1 GCTGGAGAAAAGCAGCGGAG; DNA 2 GTAAGCTGACGCAACGTCTG; PCR primers, chemistry not given here, further chemistry not given here)	–	–	–	–	–	–	–	–	–	–	–	–	no amplification of DNA	474	–
–	CTX-M-I group: primer pair of SEQ ID NO:1 and SEQ ID NO:2, Group 1 CTX-M β-lactamases, 499 base pair amplicon (DNA 1 GACGATGTCACTGGCTGAGC; DNA 2 AGCCGCCGACGCTAATACA; PCR primers, chemistry not given here, further chemistry not given here)	–	–	–	–	–	–	–	–	–	–	–	–	No amplified product	499	–
–	CTX-M-II group: primer pair of SEQ ID NO:3 and SEQ ID NO:4, Group 2 CTX-M β-lactamases, 351 base pair amplicon (DNA 1 GCGACCTGGTTAACTACAATCC; DNA 2 CGGTAGTATTGCCCTTAAGCC; PCR primers, chemistry not given here, further chemistry not given here)	–	–	–	–	–	–	–	–	–	–	–	–	no amplification product	351	–
–	COCC1=C(C(=O)O)N2C(=O)[C@@H](NC(=O)/C(=N\OC)c3csc(N)n3)[C@H]2SC1 [CPD, cefpodoxime]	175	(100%)	51	(100%)	24	(100%)	5	(100%)	93	(100%)	2	(100%)	–	–	–
> 16	CO/N=C(\C(=O)N[C@@H]1C(=O)N2C(C(=O)[O-])=C(C[N+]3(C)CCCC3)CS[C@H]12)c1csc(N)n1 [cefepime]	–	–	–	–	–	–	–	–	–	–	–	–	–	–	–
–	CTX-M-III group: primer pair of SEQ ID NO:7 and SEQ ID NO:8, Group 3 or Group 5 CTX-M β-lactamases, 307 base pair amplicon (DNA 1 CGCTTTGCCATGTGCAGCACC; DNA 2 GCTCAGTACGATCGAGCC; PCR primers, chemistry not given here, further chemistry not given here)	–	–	–	–	–	–	–	–	–	–	–	–	–	–	control strains whose DNA was amplified ([8]; all control strains of Table 1): amplification of DNA prepared from only one strain, Rio-3

Compound	MIC [1] [mg/L]	Screening, No positive [2]	Screening, No positive (%) [2]	Screening, No positive [3]	Screening, No positive (%) [3]	Screening, No positive [4]	Screening, No positive (%) [4]	Screening, No positive [5]	Screening, No positive (%) [5]	Screening, No positive [6]	Screening, No positive (%) [6]	Screening, No positive [7]	Screening, No positive (%) [7]	amplification with the rest of the control strains [8]	size of single amplified product [8] [bp]	also measured
CC(C)(O/N=C(\C(=O)N[C@@H]1C(=O)N2C(C(=O)[O-])=C(C[n+]3ccccc3)CS[C@H]12)c1csc(N)n1)C(=O)O [CAZ, ceftazidime]	1 to 8 (≈ 1.83 to 14.6 µM)	151	(86%)	51	(100%)	24	(100%)	5	(100%)	71	(76%)	0	(0%)	–	–	ESBL-producing strains not detected [9]: about 14%
